According to PMC6825221, “In silico re-engineering of a neurotransmitter to activate KCNQ potassium channels in an isoform-specific manner” (Communications Biology, 2019):

Key:
KCNQ3* = KCNQ3* (Homo sapiens, UniProt O43525, A315T); test: TEVC of homomeric KCNQ3* (A315T KCNQ3 mutant) expressed in Xenopus oocytes; assay type: cell-based
Source text: We next validated the in silico predictions using two-electrode voltage clamp of homomeric neuronal KCNQ2-5 channel isoforms expressed in Xenopus laevis oocytes. […] As in previous studies[8],[10], we used the A315T KCNQ3 mutant (KCNQ3*) that ensures large enough currents to accurately quantify voltage dependence and pharmacology of homomeric KCNQ3[16].
(§1) We generated cRNA transcripts encoding human KCNQ1, KCNQ2, KCNQ3, KCNQ4, KCNQ5 or GLRA1 (NM_001146040) (GenScript, Piscataway, NJ, USA) by in vitro transcription using the T7 polymerase mMessage mMachine kit (Thermo Fisher Scientific), after vector linearization, from cDNA sub-cloned into plasmids incorporating Xenopus laevis β-globin 5′ and 3′ UTRs flanking the coding region to enhance translation and cRNA stability. We quantified cRNA by spectrophotometry. We generated mutant KCNQ2 and KCNQ3 cDNAs by site-directed mutagenesis using a QuikChange kit (Stratagene, San Diego, CA) and prepared the corresponding cRNAs as above. We injected defolliculated stage V and VI Xenopus laevis oocytes (Ecocyte Bioscience, Austin, TX and Xenoocyte, Dexter, MI) with KCNQ channel α subunit (5-20 ng) or GLRA1 (20 ng) cRNAs. We incubated the oocytes at 16 °C in Barth’s saline solution (Ecocyte Bioscience) containing penicillin and streptomycin, with daily washing, for 2–5 days prior to two-electrode voltage-clamp (TEVC) recording.
(§2) We performed TEVC at room temperature using an OC-725C amplifier (Warner Instruments, Hamden, CT) and pClamp10 software (Molecular Devices, Sunnyvale, CA) 2–5 days after cRNA injection as described in the section above. For recording, oocytes were placed in a small-volume oocyte bath (Warner) and viewed them with a dissection microscope. Chemicals were sourced from Sigma, Matrix Scientific and Santa Cruz. […] All stock solutions were diluted in bath solution on the day of experiments. KCNQ2/3 channel activation was screened for using either 30 µM or 100 µM concentrations of each of the six compounds, then dose responses were conducted as appropriate. Bath solution was (in mM): 96 NaCl, 4 KCl, 1 MgCl2, 1 CaCl2, 10 HEPES (pH 7.6). Compounds were introduced into the oocyte recording bath by gravity perfusion at a constant flow of 1 ml per minute for 3 min prior to recording. Pipettes were of 1–2 MΩ resistance when filled with 3 M KCl. Currents were recorded in response to voltage pulses between −120 or −80 mV and + 40 mV at 20 mV intervals from a holding potential of −80 mV, to yield current-voltage relationships, current magnitude, and for quantifying activation rate. We analyzed data using Clampfit (Molecular Devices) and Graphpad Prism software (GraphPad, San Diego, CA, USA); values are stated as mean ± SEM. […]

KCNQ4 = KCNQ4 (Homo sapiens, UniProt P56696); test: TEVC of homomeric KCNQ4 expressed in Xenopus oocytes; assay type: cell-based; details: dose response
Source text: as §1
We performed TEVC at room temperature using an OC-725C amplifier (Warner Instruments, Hamden, CT) and pClamp10 software (Molecular Devices, Sunnyvale, CA) 2–5 days after cRNA injection as described in the section above. For recording, oocytes were placed in a small-volume oocyte bath (Warner) and viewed them with a dissection microscope. Chemicals were sourced from Sigma, Matrix Scientific and Santa Cruz. […] All stock solutions were diluted in bath solution on the day of experiments. KCNQ2/3 channel activation was screened for using either 30 µM or 100 µM concentrations of each of the six compounds, then dose responses were conducted as appropriate. Bath solution was (in mM): 96 NaCl, 4 KCl, 1 MgCl2, 1 CaCl2, 10 HEPES (pH 7.6). Compounds were introduced into the oocyte recording bath by gravity perfusion at a constant flow of 1 ml per minute for 3 min prior to recording. Pipettes were of 1–2 MΩ resistance when filled with 3 M KCl. Currents were recorded in response to voltage pulses between −120 or −80 mV and + 40 mV at 20 mV intervals from a holding potential of −80 mV, to yield current-voltage relationships, current magnitude, and for quantifying activation rate. We analyzed data using Clampfit (Molecular Devices) and Graphpad Prism software (GraphPad, San Diego, CA, USA); values are stated as mean ± SEM. We plotted raw or normalized tail currents versus prepulse voltage and fitted with a single Boltzmann function:1 g=(A1−A2)/1+exp(V12−V)∕VS+A2, where g is the normalized tail conductance, A1 is the initial value at −∞, A2 is the final value at +∞, V1/2 is the half-maximal voltage of activation and Vs the slope factor. Activation, deactivation, wash-in and washout kinetics were fitted with single exponential functions to yield a τ value.

KCNQ5 = KCNQ5 (Homo sapiens, UniProt Q9NR82); test: TEVC of homomeric KCNQ5 expressed in Xenopus oocytes; assay type: cell-based; details: read-out: EC50, KCNQ5 activation
Source text: as §1
as §2, with “Bath solution was (in mM): 96 NaCl, 4 KCl, 1 MgCl2, 1 CaCl2, 10 HEPES (pH 7.6). Compounds were introduced into the oocyte recording bath by gravity perfusion at a constant flow of 1 ml per minute for 3 min prior to recording. Pipettes were of 1–2 MΩ resistance when filled with 3 M KCl.” left out

KCNQ2 [1] = molecular target: T1, KCNQ2 (Homo sapiens, UniProt O43526); test: [3H]GABA binding and competition, oocytes expressing KCNQ2; details: 100 µM
Method: Oocytes were then washed four times in 16 °C ND96, transferred to individual wells in a 96 well plate and lysed in 0.2% SDS in ND96. Each oocyte lysate was transferred to a scintillation vial containing 5 ml Cytoscint scintillation cocktail fluid (MP Biomedicals, Santa Ana, CA). Vials were capped, shaken, and then allowed to sit at room temperature for at least 30 min before scintillation counting in a Beckmann Coulter LS6500 liquid scintillation counter.

KCNQ2 [2] = molecular target: T1, KCNQ2; test: Relative ion permeability of KCNQ2; assay type: cell-based; set-up: dose or concentration left out as unconfirmed
Source text: According to the Goldman–Hodgkin–Katz (GHK) voltage equation:2 Erev=RT∕Fln(PK[K^+]O+PNa[Na]O+PCl[Cl]i)/(PK[K^+]i+PNa[Na]i+PCl[Cl]o), where Erev is the absolute reversal potential and P is permeability. This permits calculation of the relative permeability of each ion if concentrations on either side of the membrane are known. A modified version of this equation was used here to determine relative permeability of two ions in a system in which only the extracellular ion concentration was known. Thus, relative permeability of Rb^+, Cs^+, and Na^+ compared to K^+ ions was calculated for KCNQ2 and KCNQ3* by plotting the I/V relationships for each channel with each extracellular ion (100 mM) (using the voltage protocol shown in Fig. 9g) and comparing them to that with 100 mM extracellular K^+ ion to yield a change in reversal potential (ΔErev) for each ion compared to that of K^+. Permeability ratios for each ion (X) compared to K^+ were then calculated as3 ΔErev=Erev,X−Erev,K=lnPX/PK. […]

Structure (SMILES): CS(=O)(=O)N(CC(=O)O)c1cccc(F)c1 [3FMSG]
- KCNQ3* activation and deactivation rates (KCNQ3*; 100 µM): speeded activation and slowed deactivation
- EC50 (KCNQ3*; ΔV0.5act, read-out: EC50, KCNQ3* activation): 18 ± 12 nM
- effects on KCNQ4 (KCNQ4): negligible or much less potent effects
- EC50 (KCNQ5): 171 ± 112 nM
- competition of GABA binding to KCNQ2 (KCNQ2 [1]): able to compete out GABA binding
- relative Na+ permeability (compared to K+) of KCNQ2 (KCNQ2 [2]): not KCNQ2
